Results: article PMC6988422 (Molecular Plant Pathology, 2019)

Target: T1, CdgL (c-di-GMP receptor interacting with LysR; YajQ homologue, Le2538) (Lysobacter enzymogenes, UniProt A0A0S2DCE3)
T1 sequence (A0A0S2DCE3 1-160): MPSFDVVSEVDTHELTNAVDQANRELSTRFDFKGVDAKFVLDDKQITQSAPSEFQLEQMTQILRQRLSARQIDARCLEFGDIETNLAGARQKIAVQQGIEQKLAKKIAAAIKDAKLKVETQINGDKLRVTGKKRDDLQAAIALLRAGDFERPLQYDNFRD
Assay: microscale thermophoresis
Format: binding

Kd: 14.6 µM
SMILES: Nc1nc2c(ncn2[C@@H]2O[C@@H]3CO[P@](=O)(O)O[C@H]4[C@@H](O)[C@H](n5cnc6c(=O)[nH]c(N)nc65)O[C@@H]4CO[P@](=O)(O)O[C@H]3[C@H]2O)c(=O)[nH]1 [c-di-GMP]
